From PubChem BioAssay (NCI)
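Where inhibition never reached the appropriate level, the endpoint shown equals the highest concentration tested. Otherwise, values were interpolated linearly from a five-concentration, 48-hour dose response in 96-well plates. TGI: total growth inhibition.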

Legend:
Test in all cases: DTP human tumour cell line panel, 48 h
M19-MEL melanoma = tested on: M19-MEL melanoma
SK-OV-3 ovarian = tested on: SK-OV-3 ovarian
OVCAR-4 ovarian = tested on: OVCAR-4 ovarian
M14 melanoma = tested on: M14 melanoma
A549 NSCLC = tested on: A549 NSCLC
DLD-1 colon = tested on: DLD-1 colon
UO-31 renal = tested on: UO-31 renal
SNB-75 CNS = tested on: SNB-75 CNS
SR leukemia = tested on: SR leukemia
MALME-3M melanoma = tested on: MALME-3M melanoma
KM12 colon = tested on: KM12 colon
SW-620 colon = tested on: SW-620 colon
RPMI-8226 leukemia = tested on: RPMI-8226 leukemia
SNB-78 CNS = tested on: SNB-78 CNS
NCI-H460 lung = tested on: NCI-H460 lung
786-0 renal = tested on: 786-0 renal
HCC-2998 colon = tested on: HCC-2998 colon
A498 renal = tested on: A498 renal
HT29 colon = tested on: HT29 colon
UACC-257 melanoma = tested on: UACC-257 melanoma
RXF 393 renal = tested on: RXF 393 renal
HOP-18 NSCLC = tested on: HOP-18 NSCLC
SN12C renal = tested on: SN12C renal
DMS 273 small cell lung = tested on: DMS 273 small cell lung
OVCAR-8 ovarian = tested on: OVCAR-8 ovarian
LOX IMVI melanoma = tested on: LOX IMVI melanoma
DMS 114 small cell lung = tested on: DMS 114 small cell lung
RXF-631 renal = tested on: RXF-631 renal
TK-10 renal = tested on: TK-10 renal
EKVX NSCLC = tested on: EKVX NSCLC
SK-MEL-5 melanoma = tested on: SK-MEL-5 melanoma
IGROV1 ovarian = tested on: IGROV1 ovarian
U251 CNS = tested on: U251 CNS
SK-MEL-2 melanoma = tested on: SK-MEL-2 melanoma
OVCAR-5 ovarian = tested on: OVCAR-5 ovarian
HL-60(TB) leukemia = tested on: HL-60(TB) leukemia
NCI-H522 lung = tested on: NCI-H522 lung
HOP-92 NSCLC = tested on: HOP-92 NSCLC
HOP-62 NSCLC = tested on: HOP-62 NSCLC
KM20L2 colon = tested on: KM20L2 colon
NCI-H23 lung = tested on: NCI-H23 lung
SF-295 CNS = tested on: SF-295 CNS
SNB-19 CNS = tested on: SNB-19 CNS
SF-539 CNS = tested on: SF-539 CNS
SK-MEL-28 melanoma = tested on: SK-MEL-28 melanoma
UACC-62 melanoma = tested on: UACC-62 melanoma
LXFL 529 NSCLC = tested on: LXFL 529 NSCLC
SF-268 CNS = tested on: SF-268 CNS
OVCAR-3 ovarian = tested on: OVCAR-3 ovarian
HCT-116 colon = tested on: HCT-116 colon
COLO 205 colon = tested on: COLO 205 colon
K-562 leukemia = tested on: K-562 leukemia
ACHN renal = tested on: ACHN renal
HCT-15 colon = tested on: HCT-15 colon
CCRF-CEM leukemia = tested on: CCRF-CEM leukemia
CAKI-1 renal = tested on: CAKI-1 renal
MOLT-4 leukemia = tested on: MOLT-4 leukemia

Measured: TGI

CSc1nc(NC2OC(COC(C)=O)C(OC(C)=O)C(OC(C)=O)C2OC(C)=O)c(N=CC=Nc2c(NC3OC(COC(C)=O)C(OC(C)=O)C(OC(C)=O)C3OC(C)=O)nc(SC)[nH]c2=O)c(=O)[nH]1 (stereo unspecified)
not listed: CCRF-CEM leukemia | CAKI-1 renal | MOLT-4 leukemia
> 100 µM: all other assays above

N#CC(C#N)=C1NN=C(Cl)c2ccccc21
not listed: SR leukemia | SNB-78 CNS | A498 renal | SNB-19 CNS | HCT-116 colon
> 100 µM: all other assays above
